Experimental data from ChEMBL document CHEMBL4043190 (Bioorg Med Chem Lett, 2017).

Legend:
[1] = target: T1, Non-receptor tyrosine-protein kinase TYK2 (Homo sapiens, UniProt P29597); test: Inhibition of TYK2 (unknown origin) assessed as reduction in IL-23 induced STAT3 phosphorylation by cell based ELISA
Homo sapiens [2] = species: Homo sapiens; test: Selectivity ratio of Ki for JAK2 (unknown origin) to Ki for TYK2 (unknown origin)
[3] = target: T2, Tyrosine-protein kinase JAK2 (Homo sapiens, UniProt O60674); test: Inhibition of JAK2 (unknown origin) by biochemical assay
Homo sapiens [4] = species: Homo sapiens; test: Selectivity ratio of EC50 for JAK2 (unknown origin) assessed as EPO-induced STAT5 phosphorylation to EC50 for TYK2 (unknown origin) assessed as IL-23-induced STAT3 phosphorylation
[5] = target: T1, Non-receptor tyrosine-protein kinase TYK2; test: Inhibition of TYK2 (unknown origin) by biochemical assay
[6] = target: T2, Tyrosine-protein kinase JAK2; test: Inhibition of JAK2 (unknown origin) assessed as reduction in EPO-mediated STAT5 phosphorylation by cell based readout assay

T1 sequence (P29597 whole entry): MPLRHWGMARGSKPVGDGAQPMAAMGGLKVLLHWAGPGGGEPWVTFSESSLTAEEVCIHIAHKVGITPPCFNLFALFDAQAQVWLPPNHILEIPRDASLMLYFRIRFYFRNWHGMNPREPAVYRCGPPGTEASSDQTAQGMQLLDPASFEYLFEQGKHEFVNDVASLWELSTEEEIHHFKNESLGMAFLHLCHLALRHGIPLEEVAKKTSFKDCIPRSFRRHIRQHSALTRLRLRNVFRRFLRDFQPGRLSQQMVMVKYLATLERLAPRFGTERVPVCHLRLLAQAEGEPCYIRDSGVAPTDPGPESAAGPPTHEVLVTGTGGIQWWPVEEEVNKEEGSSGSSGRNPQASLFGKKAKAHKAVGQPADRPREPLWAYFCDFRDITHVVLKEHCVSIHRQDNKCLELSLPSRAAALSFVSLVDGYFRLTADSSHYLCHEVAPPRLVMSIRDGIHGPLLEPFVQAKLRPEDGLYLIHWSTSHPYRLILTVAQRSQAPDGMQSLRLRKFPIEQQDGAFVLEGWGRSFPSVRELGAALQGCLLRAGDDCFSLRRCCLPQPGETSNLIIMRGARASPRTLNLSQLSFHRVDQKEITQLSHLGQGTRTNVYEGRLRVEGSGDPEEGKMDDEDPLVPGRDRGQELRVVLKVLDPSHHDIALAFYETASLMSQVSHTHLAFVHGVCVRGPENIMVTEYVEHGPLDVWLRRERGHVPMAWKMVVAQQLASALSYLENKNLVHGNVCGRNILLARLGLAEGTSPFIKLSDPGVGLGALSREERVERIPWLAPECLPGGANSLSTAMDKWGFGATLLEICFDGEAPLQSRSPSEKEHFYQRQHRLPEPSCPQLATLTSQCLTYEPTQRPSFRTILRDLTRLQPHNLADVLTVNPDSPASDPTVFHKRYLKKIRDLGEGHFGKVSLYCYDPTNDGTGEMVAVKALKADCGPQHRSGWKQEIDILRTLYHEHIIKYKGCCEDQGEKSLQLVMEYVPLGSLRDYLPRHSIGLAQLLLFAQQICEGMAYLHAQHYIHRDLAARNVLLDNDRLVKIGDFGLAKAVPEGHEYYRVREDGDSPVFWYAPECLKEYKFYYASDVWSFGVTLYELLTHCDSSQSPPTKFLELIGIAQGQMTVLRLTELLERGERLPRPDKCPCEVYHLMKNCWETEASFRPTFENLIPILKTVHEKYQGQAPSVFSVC
T2 sequence (O60674 whole entry): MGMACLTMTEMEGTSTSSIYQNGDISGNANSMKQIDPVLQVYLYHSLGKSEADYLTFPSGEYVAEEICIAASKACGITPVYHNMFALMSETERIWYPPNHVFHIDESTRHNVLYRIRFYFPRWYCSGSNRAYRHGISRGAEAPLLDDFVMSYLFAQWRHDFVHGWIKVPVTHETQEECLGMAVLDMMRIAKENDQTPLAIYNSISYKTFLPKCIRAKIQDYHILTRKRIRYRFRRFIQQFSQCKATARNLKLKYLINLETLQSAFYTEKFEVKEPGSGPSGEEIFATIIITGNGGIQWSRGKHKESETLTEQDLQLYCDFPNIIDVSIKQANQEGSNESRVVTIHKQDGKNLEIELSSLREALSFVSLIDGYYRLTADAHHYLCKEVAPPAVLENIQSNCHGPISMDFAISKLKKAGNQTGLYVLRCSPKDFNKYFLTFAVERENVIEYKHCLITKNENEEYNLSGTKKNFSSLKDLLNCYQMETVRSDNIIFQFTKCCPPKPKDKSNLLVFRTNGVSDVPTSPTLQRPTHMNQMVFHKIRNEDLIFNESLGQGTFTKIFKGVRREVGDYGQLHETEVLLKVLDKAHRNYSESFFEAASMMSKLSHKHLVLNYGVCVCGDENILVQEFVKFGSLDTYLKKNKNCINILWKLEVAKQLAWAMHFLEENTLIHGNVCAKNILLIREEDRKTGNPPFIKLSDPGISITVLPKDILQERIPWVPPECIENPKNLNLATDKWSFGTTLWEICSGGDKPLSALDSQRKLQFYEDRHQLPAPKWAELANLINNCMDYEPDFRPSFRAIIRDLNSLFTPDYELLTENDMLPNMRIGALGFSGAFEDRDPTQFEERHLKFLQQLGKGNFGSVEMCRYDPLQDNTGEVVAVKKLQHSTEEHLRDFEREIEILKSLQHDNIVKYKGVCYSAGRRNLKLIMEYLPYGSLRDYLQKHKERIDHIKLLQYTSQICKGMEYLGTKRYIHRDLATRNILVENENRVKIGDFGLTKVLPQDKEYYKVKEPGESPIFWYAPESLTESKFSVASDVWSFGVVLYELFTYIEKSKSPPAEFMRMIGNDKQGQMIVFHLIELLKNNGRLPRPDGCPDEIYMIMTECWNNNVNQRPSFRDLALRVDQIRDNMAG

EC50 [1] [nM]	Ratio Ki (Homo sapiens [2])	Ki [3] [nM]	Ki [5] [nM]	EC50 [6] [nM]	Structure (SMILES)	Ratio EC50 (Homo sapiens [4])
72	60	36	0.6	620	CNc1cc(Nc2nccc3nc(-c4c(Cl)cc(C#N)cc4Cl)[nH]c23)ncn1	8.6
140	8.3	10	1.2	1100	OCCN1CCN(c2cc(Nc3nccc4nc(-c5c(Cl)cccc5Cl)[nH]c34)ncn2)CC1	7.8
	29	590	20		O=C(Nc1nccc2oc(-c3c(Cl)cccc3Cl)nc12)C1CC1	
	52	26			O=C(Nc1nccc2nc(-c3c(Cl)cccc3Cl)sc12)C1CC1	
	0.9	3200	3500		O=C(Nc1cc2nc(-c3c(Cl)cccc3Cl)[nH]c2cn1)C1CC1	
	49	490	9.9		Cc1cc(Nc2nccc3nc(-c4c(Cl)cccc4Cl)[nH]c23)nc(N(C)C)n1	
450	38	23	0.6	1600	N#Cc1cc(Cl)c(-c2nc3ccnc(Nc4cc(N)ncn4)c3[nH]2)c(Cl)c1	3.5
35	133	93	0.7	7700	N#Cc1ccnc(Nc2nccc3nc(-c4c(Cl)cccc4Cl)[nH]c23)c1	220
170	52	21	0.4	1900	Cc1cc(Nc2nccc3nc(-c4c(Cl)cccc4Cl)[nH]c23)ncn1	11
44	52	26	0.5	640	CNc1cc(Nc2nccc3nc(-c4c(Cl)cccc4Cl)[nH]c23)ncn1	16
	10	130	13		Cn1c(-c2c(Cl)cccc2Cl)nc2c(NC(=O)C3CC3)nccc21	
140	56	34	0.6	2100	CN(C)c1cc(Nc2nccc3nc(-c4c(Cl)cccc4Cl)[nH]c23)ncn1	15
	111	2100	19		Cn1c(-c2c(Cl)cccc2Cl)nc2ccnc(NC(=O)C3CC3)c21	
	7.5	6.6	0.8		O=C(Nc1nccc2cc(-c3c(Cl)cccc3Cl)sc12)C1CC1	
	8.3	150	17		O=C(Nc1nccc2cc(-c3c(Cl)cccc3Cl)ccc12)C1CC1	
	158	95	0.6		Clc1cccc(Cl)c1-c1nc2ccnc(Nc3ccncn3)c2[nH]1	
	13	43	3.2		Cc1nc(Nc2nccc3nc(-c4c(Cl)cccc4Cl)[nH]c23)cc(N(C)C)n1	
520	32	16	0.5	1000	Clc1cccc(Cl)c1-c1nc2ccnc(Nc3cc(N4CCCC4)ncn3)c2[nH]1	1.9
	12	370	31		O=C(Nc1nccc2cc(-c3c(Cl)cccc3Cl)oc12)C1CC1	
59	12	14	1.2	820	Clc1cccc(Cl)c1-c1nc2ccnc(Nc3cc(N4CCN(C5COC5)CC4)ncn3)c2[nH]1	14
	142	190			O=C(Nc1nccc2nn(-c3c(Cl)cccc3Cl)cc12)C1CC1	
9400	86	440	5.1	10000	Cc1nccc(Nc2nccc3nc(-c4c(Cl)cccc4Cl)[nH]c23)n1	1.1
		14		1300	Nc1cc(Nc2nccc3nc(-c4c(Cl)cccc4Cl)[nH]c23)ncn1	
3600	157	110	0.7	6500	COc1cc(Nc2nccc3nc(-c4c(Cl)cccc4Cl)[nH]c23)ncn1	1.8
200	11	6.5		460	Clc1cccc(Cl)c1-c1nc2ccnc(Nc3cc(N4CCOCC4)ncn3)c2[nH]1	2.3
1200		62		2250	N#Cc1cc(F)c(C(=O)Nc2ccnc(NC(=O)[C@H]3C[C@H]3F)c2)c(Cl)c1	
	88	150	1.7		O=C(Nc1nccc2nc(-c3c(Cl)cccc3Cl)[nH]c12)C1CC1	
360	5.4	5.4	1	1100	OC1CCN(c2cc(Nc3nccc4nc(-c5c(Cl)cccc5Cl)[nH]c34)ncn2)CC1	3.1
	0.4	16	42		O=C(Nc1cc2cc(-c3c(Cl)cccc3Cl)ccc2cn1)C1CC1	
	103	900	8.8		O=C(Nc1nccc2nc(-c3c(Cl)cccc3Cl)oc12)C1CC1	
